Four molecules from PubChem BioAssay (NCI) can be followed below.

Structures are written as SMILES.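 The compound was tested at five concentrations on cells cultured in 96-well plates, with a 48-hour exposure period. TGI is the concentration that stops growth completely.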

One test has as its system HCT-116 colon. Description: NCI tumour cell line growth inhibition, 48 h.
Consider `Cn1c2ccccc2n2c(N=O)c(-c3ccccc3)nc12`, for which the TGI was greater than 100 µM.

Turning to `COC(=O)/C=C(/C)n1nc2ccccc2n1`, the TGI was greater than 100 µM.

In the case of `O=C1c2cc(Cl)ccc2-n2cnnc2C2CSCN12` (stereo unspecified), the TGI is greater than 100 µM.

Molecule `Cc1cc2c(cc1-c1cc3c(cc1C)C(C(C)C)=C(O)C(=O)/C3=C\Nc1c3ccccc3nc3ccccc13)/C(=C/Nc1c3ccccc3nc3ccccc13)C(=O)C(O)=C2C(C)C` returned a TGI of 21.5 µM.

The test system of another test is HS 578T breast. Description: NCI tumour cell line growth inhibition, 48 h.
`Cn1c2ccccc2n2c(N=O)c(-c3ccccc3)nc12` displayed a TGI greater than 100 µM.

`COC(=O)/C=C(/C)n1nc2ccccc2n1` displayed a TGI greater than 100 µM.

Molecule `O=C1c2cc(Cl)ccc2-n2cnnc2C2CSCN12` (stereo unspecified) showed a TGI greater than 100 µM.

For `Cc1cc2c(cc1-c1cc3c(cc1C)C(C(C)C)=C(O)C(=O)/C3=C\Nc1c3ccccc3nc3ccccc13)/C(=C/Nc1c3ccccc3nc3ccccc13)C(=O)C(O)=C2C(C)C`, the TGI is 21 µM.

The test system of another test is RXF 393 renal. Description: NCI tumour cell line growth inhibition, 48 h.
In turn, `Cn1c2ccccc2n2c(N=O)c(-c3ccccc3)nc12` gave a TGI greater than 100 µM.

As for `COC(=O)/C=C(/C)n1nc2ccccc2n1`, the TGI is greater than 100 µM.

Take `O=C1c2cc(Cl)ccc2-n2cnnc2C2CSCN12` (stereo unspecified): the TGI was greater than 100 µM.

Molecule `Cc1cc2c(cc1-c1cc3c(cc1C)C(C(C)C)=C(O)C(=O)/C3=C\Nc1c3ccccc3nc3ccccc13)/C(=C/Nc1c3ccccc3nc3ccccc13)C(=O)C(O)=C2C(C)C` came in with a TGI of 20.1 µM.

The next test relates to SW-620 colon. Description: NCI tumour cell line growth inhibition, 48 h.
`Cn1c2ccccc2n2c(N=O)c(-c3ccccc3)nc12` yielded a TGI greater than 100 µM.

Consider `COC(=O)/C=C(/C)n1nc2ccccc2n1`, for which the TGI was greater than 100 µM.

Turning to `O=C1c2cc(Cl)ccc2-n2cnnc2C2CSCN12` (stereo unspecified), the TGI was greater than 100 µM.

`Cc1cc2c(cc1-c1cc3c(cc1C)C(C(C)C)=C(O)C(=O)/C3=C\Nc1c3ccccc3nc3ccccc13)/C(=C/Nc1c3ccccc3nc3ccccc13)C(=O)C(O)=C2C(C)C` had a TGI of 13.3 µM.

For another test, the system named is MALME-3M melanoma. Description: NCI tumour cell line growth inhibition, 48 h.
The molecule `Cn1c2ccccc2n2c(N=O)c(-c3ccccc3)nc12` gave a TGI greater than 100 µM.

`COC(=O)/C=C(/C)n1nc2ccccc2n1` showed a TGI greater than 100 µM.

On to `O=C1c2cc(Cl)ccc2-n2cnnc2C2CSCN12` (stereo unspecified), for which the TGI is greater than 100 µM.

`Cc1cc2c(cc1-c1cc3c(cc1C)C(C(C)C)=C(O)C(=O)/C3=C\Nc1c3ccccc3nc3ccccc13)/C(=C/Nc1c3ccccc3nc3ccccc13)C(=O)C(O)=C2C(C)C` showed a TGI of 10.1 µM.

Another test concerns SNB-19 CNS. Description: NCI tumour cell line growth inhibition, 48 h.
With `Cn1c2ccccc2n2c(N=O)c(-c3ccccc3)nc12`, the TGI was greater than 100 µM.

The molecule `COC(=O)/C=C(/C)n1nc2ccccc2n1` came in with a TGI greater than 100 µM.

`O=C1c2cc(Cl)ccc2-n2cnnc2C2CSCN12` (stereo unspecified) showed a TGI greater than 100 µM.

Molecule `Cc1cc2c(cc1-c1cc3c(cc1C)C(C(C)C)=C(O)C(=O)/C3=C\Nc1c3ccccc3nc3ccccc13)/C(=C/Nc1c3ccccc3nc3ccccc13)C(=O)C(O)=C2C(C)C` came in with a TGI of 13.6 µM.

Another test has as its system HCT-15 colon. Briefly: NCI tumour cell line growth inhibition, 48 h.
Molecule `Cn1c2ccccc2n2c(N=O)c(-c3ccccc3)nc12` came in with a TGI greater than 100 µM.

As for `COC(=O)/C=C(/C)n1nc2ccccc2n1`, the TGI was greater than 100 µM.

Consider `O=C1c2cc(Cl)ccc2-n2cnnc2C2CSCN12` (stereo unspecified), for which the TGI is greater than 100 µM.

`Cc1cc2c(cc1-c1cc3c(cc1C)C(C(C)C)=C(O)C(=O)/C3=C\Nc1c3ccccc3nc3ccccc13)/C(=C/Nc1c3ccccc3nc3ccccc13)C(=O)C(O)=C2C(C)C` yielded a TGI of 14.9 µM.

The test system of a further test is BT-549 breast. Description: NCI tumour cell line growth inhibition, 48 h.
`Cn1c2ccccc2n2c(N=O)c(-c3ccccc3)nc12` returned a TGI of 96.6 µM.

Consider `COC(=O)/C=C(/C)n1nc2ccccc2n1`, for which the TGI is greater than 100 µM.

As for `O=C1c2cc(Cl)ccc2-n2cnnc2C2CSCN12` (stereo unspecified), the TGI was greater than 100 µM.

`Cc1cc2c(cc1-c1cc3c(cc1C)C(C(C)C)=C(O)C(=O)/C3=C\Nc1c3ccccc3nc3ccccc13)/C(=C/Nc1c3ccccc3nc3ccccc13)C(=O)C(O)=C2C(C)C` had a TGI of 20.7 µM.

A further test has as its system SK-MEL-28 melanoma. Description: NCI tumour cell line growth inhibition, 48 h.
For the molecule `Cn1c2ccccc2n2c(N=O)c(-c3ccccc3)nc12`, the TGI was greater than 100 µM.

In the case of `COC(=O)/C=C(/C)n1nc2ccccc2n1`, the TGI was greater than 100 µM.

In turn, `O=C1c2cc(Cl)ccc2-n2cnnc2C2CSCN12` (stereo unspecified) showed a TGI greater than 100 µM.

As to `Cc1cc2c(cc1-c1cc3c(cc1C)C(C(C)C)=C(O)C(=O)/C3=C\Nc1c3ccccc3nc3ccccc13)/C(=C/Nc1c3ccccc3nc3ccccc13)C(=O)C(O)=C2C(C)C`, the TGI is 19.5 µM.

The test system of another test is UO-31 renal. Description: NCI tumour cell line growth inhibition, 48 h.
`Cn1c2ccccc2n2c(N=O)c(-c3ccccc3)nc12`: the TGI was greater than 100 µM.

With `COC(=O)/C=C(/C)n1nc2ccccc2n1`, the TGI was greater than 100 µM.

On to `O=C1c2cc(Cl)ccc2-n2cnnc2C2CSCN12` (stereo unspecified), for which the TGI is greater than 100 µM.

The molecule `Cc1cc2c(cc1-c1cc3c(cc1C)C(C(C)C)=C(O)C(=O)/C3=C\Nc1c3ccccc3nc3ccccc13)/C(=C/Nc1c3ccccc3nc3ccccc13)C(=O)C(O)=C2C(C)C` yielded a TGI of 15.4 µM.

The test system of a further test is RPMI-8226 leukemia. Briefly: NCI tumour cell line growth inhibition, 48 h.
`Cn1c2ccccc2n2c(N=O)c(-c3ccccc3)nc12` had a TGI greater than 100 µM.

Regarding `COC(=O)/C=C(/C)n1nc2ccccc2n1`, the TGI is greater than 100 µM.

The molecule `O=C1c2cc(Cl)ccc2-n2cnnc2C2CSCN12` (stereo unspecified) displayed a TGI greater than 100 µM.

Take `Cc1cc2c(cc1-c1cc3c(cc1C)C(C(C)C)=C(O)C(=O)/C3=C\Nc1c3ccccc3nc3ccccc13)/C(=C/Nc1c3ccccc3nc3ccccc13)C(=O)C(O)=C2C(C)C`: the TGI was greater than 100 µM.

The subject of the next test is UACC-62 melanoma. Description: NCI tumour cell line growth inhibition, 48 h.
With `Cn1c2ccccc2n2c(N=O)c(-c3ccccc3)nc12`, the TGI is greater than 100 µM.

For the molecule `COC(=O)/C=C(/C)n1nc2ccccc2n1`, the TGI is greater than 100 µM.

For the molecule `O=C1c2cc(Cl)ccc2-n2cnnc2C2CSCN12` (stereo unspecified), the TGI was greater than 100 µM.

The molecule `Cc1cc2c(cc1-c1cc3c(cc1C)C(C(C)C)=C(O)C(=O)/C3=C\Nc1c3ccccc3nc3ccccc13)/C(=C/Nc1c3ccccc3nc3ccccc13)C(=O)C(O)=C2C(C)C` returned a TGI of 14.6 µM.

Another test has as its system OVCAR-3 ovarian. Briefly: NCI tumour cell line growth inhibition, 48 h.
`Cn1c2ccccc2n2c(N=O)c(-c3ccccc3)nc12`: the TGI was greater than 100 µM.

In turn, `COC(=O)/C=C(/C)n1nc2ccccc2n1` had a TGI greater than 100 µM.

Regarding `O=C1c2cc(Cl)ccc2-n2cnnc2C2CSCN12` (stereo unspecified), the TGI is greater than 100 µM.

`Cc1cc2c(cc1-c1cc3c(cc1C)C(C(C)C)=C(O)C(=O)/C3=C\Nc1c3ccccc3nc3ccccc13)/C(=C/Nc1c3ccccc3nc3ccccc13)C(=O)C(O)=C2C(C)C` registered a TGI of 14.5 µM.

In a further test the test system is NCI-H460 lung. Description: NCI tumour cell line growth inhibition, 48 h.
For `Cn1c2ccccc2n2c(N=O)c(-c3ccccc3)nc12`, the TGI turned out to be 48.3 µM.

`COC(=O)/C=C(/C)n1nc2ccccc2n1` returned a TGI greater than 100 µM.

As for `O=C1c2cc(Cl)ccc2-n2cnnc2C2CSCN12` (stereo unspecified), the TGI is greater than 100 µM.

For the molecule `Cc1cc2c(cc1-c1cc3c(cc1C)C(C(C)C)=C(O)C(=O)/C3=C\Nc1c3ccccc3nc3ccccc13)/C(=C/Nc1c3ccccc3nc3ccccc13)C(=O)C(O)=C2C(C)C`, the TGI was found to be 6.3 µM.
